Measured values: US20120309767A1, “PROCESS FOR THE PREPARATION OF ALPHA FORM OF IMATINIB MESYLATE” (priority 2010, published 2012)
Read-outs that look alike come from different tables or passages of the source.

Settings: 40° C. and 75 RH; for Identification by IR: vs working standard of Imatinib Mesylate (Form-α)
Method: FTIR (Fourier transform infrared spectrophotometer) • Make: SHIMADZU, IR Prestige-21 • Sample preparation: KBr pellets • 3. […] HPLC: Used Agilent 1200, VWD detector, system gradient Instrument conditions are:
A stability study was performed on the alpha form of imatinib mesylate at 40° C. and 75 RH for 3 months.

CS(=O)(=O)O.Cc1ccc(NC(=O)c2ccc(CN3CCN(C)CC3)cc2)cc1Nc1nccc(-c2cccnc2)n1 [Example 2]
Assay [by HPLC] (on anhydrous) (1M): 99.94% | Descriptions (1M): White | Water content by KF (1M): 0.55 % w/w | Identification by IR (1M): concordant | Assay [by HPLC] (on anhydrous) (2M): 99.70% | Descriptions (2M): White | Related Substance [by HPLC] Unknown impurity RRT = 0.81 (2M): 0.03 % w/w | Water content by KF (2M): 0.61 % w/w | Identification by IR (2M): concordant | Assay [by HPLC] (on anhydrous) (3M): 99.75% | Descriptions (3M): White | Related Substance [by HPLC] Known impurities: Impurity-1 (3M): 0.02 % w/w | Related Substance [by HPLC] Unknown impurity RRT = 0.81 (3M): 0.02 % w/w | Water content by KF (3M): 0.56 % w/w | Identification by IR (3M): concordant | Assay [by HPLC] (on anhydrous) (Initial): 99.98% | Descriptions (Initial): White | Related Substance [by HPLC] Total impurities (Initial): 0.04 % w/w | Related Substance [by HPLC] Unknown impurity RRT = 0.81 (Initial): 0.04 % w/w | Water content by KF (Initial): 0.52 % w/w | Identification by IR (Initial): concordant
